From a melting point compilation (Tetko et al.; mined from patent text by program, amines drawn as free bases though some values may be those of a salt) come the findings set out here.

`FC(F)(F)c1ccc(Cl)c(CN2CCNc3ncc(I)cc32)c1` showed a melting point of 120 to 125 °C. Then `Cc1ccnc(Cl)c1C(=O)O`, with 152 to 154 °C. `COc1ccc(CN(CCN(C)C)c2cccc(/C=C/C(=O)O)n2)cc1` yielded a melting point of 75 to 81 °C. For `COc1cccc(-c2nn(Cc3oc4ccccc4c(=O)c3-c3ccccc3)c3ncnc(N)c23)c1`, the melting point is 111 to 115 °C. With `CSC1Oc2ccc(Cl)cc2C1=O` (stereo not given), the melting point was 76 to 78 °C.

Take `COc1oc(-c2ccc(NS(=O)(=O)c3sc4ccc(F)cc4c3C)c(S(C)(=O)=O)c2)nc1C`: the melting point was in the range of 232 to 233 °C. `COc1ccc(N2CCN(CCC(O)COc3ccccc3)CC2)cc1` (stereo not given) gave a melting point of 95 to 97 °C. The molecule `N#Cc1cnn2c(C(F)(F)F)cc(-c3ccc(C(F)(F)F)c(F)c3)nc12` registered a melting point of 184 °C. Regarding `O=Cc1cccnc1S(=O)(=O)c1ccc(Cl)cc1`, the melting point was 100 to 101 °C.

`CC(=O)NN1C(=O)c2cc3ccc4c(c3c(-c3ccc5c(c3)OCO5)c2C1=O)OCO4` registered a melting point of 281 to 283 °C.

Regarding `CCCCC1(N(C)C)CC=C(c2[nH]c3ccccc3c2Cc2ccccc2)CC1` (stereo not given), the melting point is 107 to 115 °C.

`O=Cc1ccc(-c2cccc3cncn23)cc1` returned a melting point of 144 to 146 °C. As for `COC(=O)NCc1cccc(Br)c1`, the melting point is 41 to 44 °C. `COC(C)=CC(=O)Nc1cccc(C)c1` showed a melting point of 106 °C. Molecule `N=C(NCC1CCCO1)Nc1c([N+](=O)[O-])cnc2ccccc12` (stereo not given) registered a melting point of 210 to 212 °C. `OCc1cn(-c2ccc(F)c(Cl)c2)cn1` gave a melting point of 130 to 135 °C. With `CC12CCC(=O)C=C1CCC1C2CCC2(C)C(n3ccnc3)=CCC12` (stereo not given), the melting point is 147 to 150 °C. Consider `CONC(=N)c1nc(C)c(I)c(NCC(F)(F)F)n1`, for which the melting point lay in the range of 150 to 152 °C. In turn, `COC(=O)CCC#Cc1cccc(Br)n1` gave a melting point of 59 to 61 °C. For the molecule `Cc1ccc(NC(=O)c2cc(Cl)ccc2NCC2CCN(C3CCSC3)CC2)nc1` (stereo not given), the melting point lay in the range of 151 to 153 °C. Next, `COc1ccc(S(=O)(=O)C2(C(=O)O)CCN(C3CCCCCCC3)CC2)cc1`: 180 °C; `CNC(=O)NC1CCC(O)c2ccccc21` (stereo not given): 172 to 180 °C. For the molecule `CCOC(=O)C(=CNC1CCCCC1)C(=O)c1ccc(I)cc1Cl`, the melting point lay within 154 to 156 °C. For the molecule `Cc1ccc2[nH]cc(C3=C(Br)C(=O)N(C)C3=O)c2c1`, the melting point fell in the range of 158 to 159 °C. For the molecule `O=C1Nc2ccccc2C1c1cc(Cl)ccc1O` (stereo not given), the melting point is 256 to 258 °C. On to `CCCN(CCC)c1c(C#N)cnn1-c1ccc(Cl)c(Cl)c1Cl`, for which the melting point lay within 99 to 100 °C. In the case of `CC(C)(C)OC(=O)N1CCC(C(=O)O)(C2CCCCC2)CC1`, the melting point came to 156 °C. Regarding `Cc1ccc(S(=O)(=O)OC[C@H]2COc3ccc4nc(C)ccc4c3O2)cc1`, the melting point lay in the range of 115 to 117 °C. For `N#Cc1cccc(C(=O)Nc2ccc(-n3nc(C(F)(F)F)cc3C(F)(F)F)nc2)c1`, the melting point is 206 to 208 °C.

Take `C=CCSc1sc(-c2cc[nH]n2)c2c1C(=O)CC(C)(C)C2`: the melting point is 164 to 167 °C. Next, `CC(C)c1cc(CCCOc2ncccc2CC(=O)O)n(Cc2ccc(Cl)cc2Cl)n1`: 111 to 112 °C; `CC(Cc1ccc(Oc2cc(Oc3ccccc3)nc(N3CCN(Cc4ccccc4)CC3)n2)cc1)(Oc1ccccc1)C(=O)O` (stereo not given): 135 to 137 °C; `CC1=NN(c2cc(-c3ccnc(Nc4cccc(Cl)c4)n3)ccn2)C(=O)C1`: 149 to 150 °C. Molecule `CC1(C)CON(Cc2ccc(N)cc2Cl)C1=O` gave a melting point of 106 to 108 °C.

Take `Cc1ccccc1-c1cccc(C=NNC(=S)NN2CCCC2)n1`: the melting point was 172 to 173 °C.

For `COc1cc(OC2CCN(c3c(O)c(=O)c3=O)CC2)ccc1CC(=O)N1CCN(c2ccccc2C)CC1C(N)=O` (stereo not given), the melting point fell in the range of 144 to 148 °C. Then `O=c1c(Cl)c(Cl)cnn1C1CCCCO1` (stereo not given), with 74 to 76 °C; and `O=C(O)N1C=NN2c3cccnc3N(c3cccc(Cl)c3)CC12` (stereo not given), with 213 to 216 °C; and `O=C1C=C(NC(=O)C(=O)c2cn(Cc3ccc(Cl)cc3)c3ccccc23)CS1`, with 248 to 250 °C.

`O=C(NCCc1ccccc1F)[C@@H]1Cc2ccccc2N1` gave a melting point of 135 °C.

`COc1cc2c(cc1Cl)NC(=O)C2=NNc1ccc(S(N)(=O)=O)cc1`: the melting point is over 250 °C. `Brc1ccc2c3c(cccc13)C(NCCCCCCCCCCn1ccnc1)=N2` yielded a melting point of 115 to 116 °C. Molecule `COc1ccc([C@@]2(C)CNC(=O)O2)cc1OC1CCCC1` showed a melting point of 80 °C. Molecule `CCOC(=O)CC(=O)Nc1ccc(F)cc1` registered a melting point of 68 to 71 °C.

On to `CCSC(=NC(=O)c1ccccc1)Nc1ccccc1F`, for which the melting point was in the range of 95 to 97 °C. Next, `CCOC(=O)COc1ccc2c(-c3ccccc3F)noc2c1Br`: 130 to 131 °C; `N#Cc1ccc2c(c1)c(CCN1C(=O)c3ccccc3C1=O)cn2Cc1ccccc1`: 182 to 184 °C. Next, `CC(C)CNc1ccccc1CS(=O)c1nc2ncccc2[nH]1` (stereo not given): 116 °C; `CC(CCl)(c1cc(Cl)nnc1Cl)C(Cl)Cl` (stereo not given): 82 to 85 °C.

In the case of `Cc1cc(C(=O)Nc2ccc(C(=O)O)cc2)no1`, the melting point fell in the range of 267 to 270 °C. Then `Cc1cc(-c2nnc3c4ccccc4c(OCc4nc[nH]n4)nn23)no1`, with 260 to 262 °C; and `COc1ccc(CNc2nc(OCc3ccccn3)ncc2C(=O)c2ccccn2)cc1Cl`, with 81 to 84 °C; and `COc1ccc(C(=O)Cc2ccccc2)c([N+](=O)[O-])c1O`, with 176 to 177 °C. For the molecule `CCOC(=O)[C@@H](NC(=O)c1cc(-c2ncc(C(F)(F)F)cc2Cl)ccc1Cl)C(C)C`, the melting point is 90 to 92 °C. For the molecule `CS(=O)(=O)c1ccc(NCC(O)CO)c([N+](=O)[O-])c1` (stereo not given), the melting point turned out to be 133 °C. Next, `CC(C)Cn1c(C(O)c2ccccc2)nc2cnc3ccccc3c21` (stereo not given): 160 to 166 °C; `CC1(C)OC(=C(C#N)C#N)C(C#N)=C1/C=C/c1ccc(N)cc1`: 360 °C. Next, `O=C(N[C@H]1CC[C@H](CCN2CCN(c3nccc4c3CCO4)CC2)CC1)c1cnc(N2CCOCC2)cn1`: 192 °C; `CCOC(=O)CCCC(=O)c1ccc(O)c(CCC(=O)OCC)c1`: 68 to 69 °C; `COc1ccc(C(=O)N2Cc3ccccc3CC2C(=O)O)cc1` (stereo not given): 178 to 180 °C. Then `COc1nc2ccc(Br)cc2c2c1C(C)(OCC(O)Cn1ccc(-c3ccc(C(F)(F)F)cc3)n1)c1ccccc1-2` (stereo not given), with 65 to 67 °C; and `Nc1ncc(Cl)nc1Br`, with 102 to 105 °C.

Molecule `COC(=O)On1c(C(=O)OC)cc2c(C)ccc(C)c21` had a melting point of 75 to 80 °C.

Consider `CC(C)(C)OC(=O)N[C@H](Cc1ccc(Cl)c(Cl)c1)C(=O)N1CCC[C@H]1C(=O)NCC1CCc2nc(N)ncc2C1` (stereo not given in full), for which the melting point lay within 110 to 113 °C. `C[C@@H](COc1ccc(N2CCN(c3ccncc3)CC2)cc1)CC(=O)OC(C)(C)C` had a melting point of 112 to 113 °C.

Molecule `COc1cccc2c1Cc1ccccc1C2(CC(=O)O)CC(=O)O` registered a melting point of 150 to 153 °C. Consider `COc1ccc(C2=NN(C)C(=O)CC2)cc1`, for which the melting point lay within 133 to 135 °C. In turn, `CC1(C)CC(=O)C1(Cl)CC(Cl)(Cl)Cl` (stereo not given) returned a melting point of 75 to 76 °C. Regarding `C=C(C)n1c(C)c(-c2ccc(F)cc2)c2cccnc21`, the melting point fell in the range of 84 to 87 °C. `COc1ccc(C(C)C(=O)O)cc1[N+](=O)[O-]` (stereo not given) gave a melting point of 89 to 90 °C. The molecule `CC(C)(C)OC(=O)C(C1NC(C(=O)OCc2ccccc2)C2(CCOCC2)S1)N1C(=O)c2ccccc2C1=O` (stereo not given) came in with a melting point of 168 to 169 °C. Then `COc1ccccc1-n1c(=O)[nH]c2c(C(N)=O)nc(-c3cccc4[nH]cnc34)nc21`, with 312 °C; and `COc1cc2c(c3c1OC(C)(C)C3)C(c1cccc(NC(=O)c3ccc(CP(=O)(O)O)cc3)c1)=NC(C)(C)C2`, with 237 to 241 °C; and `CCN(CC)C(=O)C(=O)Nc1cc(C)c(S(=O)(=O)C[N+](=O)[O-])c(C)c1`, with 128 to 129 °C. In turn, `Cc1nc(-c2ccccc2Cl)sc1-c1ccccc1` returned a melting point of 63 to 65 °C. Molecule `CN1CCN(C2=Cc3ccccc3Sc3cc(Cl)c(Cl)cc32)CC1` had a melting point of 157 to 159 °C. Then `CCCc1nc2c(N)nc(C)c(C)c2n1CCCCN1CCCS1(=O)=O`, with 155 to 161 °C; and `COc1cncc(OC)c1CCCO`, with 88 to 89 °C; and `O=C(NC1CCOCC1)c1cccc(-c2cccc3oc(Cc4cccc(C(F)(F)F)c4)cc23)c1`, with 107 to 108 °C.

In the case of `CN1C(=O)C2(COc3cc4c(cc32)OCCO4)c2c(NC(=O)C3CCCCC3)cccc21` (stereo not given), the melting point lay within 96 to 98 °C. `O=c1nc(-c2cccc(CCc3nnn[nH]3)n2)sc2ccccc12`: the melting point came to 157 °C. For the molecule `CCc1nc2cc(C(=O)NC)c(Cl)cc2n1-c1ccc(CCOC(=O)NS(=O)(=O)c2ccc(C)cc2)cc1`, the melting point was in the range of 201 to 204 °C. Then `CC(=O)N1CCc2cc(CC(C)NCCOc3ccccc3OCC(F)(F)F)cc(C#N)c21` (stereo not given), with 57 to 59 °C. In the case of `O=C(NC[C@@H]1CN2C(=O)C[C@H]2O1)C1CCCCC1` (racemic), the melting point lay in the range of 83 to 85 °C. Next, `C#CCCCCOc1ccc(C=O)cc1OC`: 67 to 68 °C; `O=C(c1ccccc1F)C1(O)CCNCC1`: 133 to 135 °C; `CC(c1c[nH]cn1)c1cccc(CO)c1O` (stereo not given): 135 to 136 °C.

`COc1cc(OCc2ccccc2)ccc1C(O)c1cc(Cl)ccc1N` (stereo not given) returned a melting point of 101 to 103 °C. `O=C(NCC1Cc2cccc(-c3ccc(C(F)(F)F)cc3)c2O1)OCc1ccccc1` (stereo not given) showed a melting point of 100 to 102 °C. Turning to `COc1ccc(N2CCN(c3c(C)c(C)c4c(c3C)C(O)(c3ccc(F)nc3)C(C)(C)O4)CC2)cc1` (stereo not given), the melting point was in the range of 129 to 131 °C.

One may read the melting point as the temperature, or range, at which the solid turns liquid.
